In assay [1] the target is T1, GPR39 (Homo sapiens, UniProt O43194).
T1 sequence (O43194 1-453): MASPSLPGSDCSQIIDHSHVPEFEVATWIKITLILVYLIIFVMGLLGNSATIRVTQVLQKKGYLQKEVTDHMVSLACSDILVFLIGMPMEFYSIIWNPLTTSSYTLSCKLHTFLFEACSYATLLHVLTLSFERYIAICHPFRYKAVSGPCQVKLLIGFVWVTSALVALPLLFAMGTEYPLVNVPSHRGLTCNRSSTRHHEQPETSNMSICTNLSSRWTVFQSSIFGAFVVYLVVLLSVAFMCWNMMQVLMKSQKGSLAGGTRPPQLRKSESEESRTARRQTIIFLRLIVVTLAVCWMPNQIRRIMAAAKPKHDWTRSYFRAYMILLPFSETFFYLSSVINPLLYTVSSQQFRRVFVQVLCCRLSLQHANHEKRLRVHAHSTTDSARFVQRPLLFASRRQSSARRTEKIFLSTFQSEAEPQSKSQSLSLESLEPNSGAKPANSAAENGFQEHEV
Kind of assay: DMR positive allosteric modulator (PAM) experiments, compound and Zn^2+ interdependencies. Format: cell-based. More on the design: Full length human (AF034633), rat (DM091294) and mouse (BC085285) GPR39; expressed in transfected cells. The procedure:
DMR assays were performed using an Epic instrument (Corning Inc., Corning, NY). 12,000 cells per well were cultured for 24 h in 384-well fibronectin-coated Epic biosensor plates (Corning). On the day of experiment, culture medium was removed and replaced with 30 μl buffer A (HBSS, HEPES 20 mM pH7.4, 1% DMSO, 0.01% BSA) using an EL406 (Bio-Tek). Plates were incubated at 26 °C for 1 h inside the Epic to allow for temperature equilibration. A baseline was read for 2 min, and then 15 μl compounds in buffer A were added using a CyBi-Well vario (CyBio) and DMR was detected during 45 min.
Concentration response curves for the interaction between ortosteric and allosteric ligands in the DNR assay were globally fitted to the operational model of allosterism and agonism as described in Leach et al.. Binding data were fitted using one site or two site binding models.
Utilizing the DMR platform, positive allosteric modulator (PAM) experiments were performed in order to more accurately determine the influences of Zn^2+ on the three compounds, see Fig 4. Compound dose responses were generated at 10 different Zn^2+ concentrations, spanning 0 to 30 μM. The presence of Zn^2+ increased potencies of compounds up to 10000-fold. Data were initially globally fitted to the operational model of allosterism and agonism described by Leach et al. However, fits obtained were not of sufficient quality. We therefore decided to calculate modulation in a more simplistic way, here called PAM EC50 and defined as the concentration of modulator (Zn^2+) causing half maximum potentiation of agonist potency.

Assay [2] deals with T1, GPR39. Kind of assay: Back-scattering interferometry (BSI) binding assay, HEK293s-hGPR39 membranes. More on the design: Full length human (AF034633), rat (DM091294) and mouse (BC085285) GPR39; expressed in transfected cells; host or cells: HEK293s (ATCC CRL-1573), pIRESneo3 vector, selected clones. How it is done:
Membranes (1.3 mg protein/ml) from HEK293s-hGPR39 and untransfected HEK293s cells were diluted 11-fold in 50 mM Tris, pH 7.5, 5 μM ZnCl2, 0.3% DMSO. The compounds were diluted from 10 mM in DMSO to the final maximum stock concentration of 30 μM with 50 mM Tris, pH 7.5, 5 μM ZnCl2, 24.6 mM sucrose. A 3-fold serial dilution was performed with the compounds and refractive index-matched assay buffer, 50 mM Tris, pH 7.5, 5 μM ZnCl2, 24.6 mM sucrose, 0.3% DMSO. The compound serial dilutions were mixed 1:1 with either the GPR39 or wild type membrane fractions in a 96-well polypropylene microplate (Eppendorf, Hauppauge, NY). After a 2 hour incubation at room temperature, the plate was analyzed on a pre-commercial prototype BSI instrument (Molecular Sensing, Inc., Nashville, TN). Binding signal was expressed as the phase shift in the interference fringe patterns on a CMOS camera as measured in milliradians. The data from the wild type membrane fractions was subtracted from the GPR39-expressing fractions point by point to obtain the specific binding interaction of the compounds with GPR39 and fit to one-site binding or two-site binding models using built-in models in Graphpad Prism to determine K D values for each compound.

[3] abbreviates: presence of 5 μM Zn^2+, one site binding model, read-out: K D ± SE.
[4] abbreviates: Zn^2+ binding, two site binding model.

The record followed here is paper PMC4697807, “Novel Zn^2+ Modulated GPR39 Receptor Agonists Do Not Drive Acute Insulin Secretion in Rodents” (PLoS ONE, 2015).

What is called EC50 is the concentration at which the effect is half-maximal. For orientation: Emax means the maximal effect, on the per cent scale that the assay sets.

Each structure is given as a SMILES string. Where two headings read alike, the source gives them in different places. Bounds are passed on as bounds.

Regarding `N#Cc1ccc(OCCn2ccnc2)c(OCCn2ccnc2)c1` [AZ1395, 3,4-bis-(2-imidazol-1-ylethoxy)-benzonitrile], the EC50 was found to be 3 µM in assay [1] ([Zn2+] μM: 0); 2.6 µM in assay [1] ([Zn2+] μM: 1e-7); 2.4 µM in assay [1] ([Zn2+] μM: 5e-7); 1.7 µM in assay [1] ([Zn2+] μM: 1e-6); 0.057 µM in assay [1] ([Zn2+] μM: 5e-6); 0.015 µM in assay [1] ([Zn2+] μM: 7e-6). Besides, the concentration for a half-maximal effect (EC50) amounted to 0.014 µM in assay [1] ([Zn2+] μM: 1e-5), 0.0035 µM in assay [1] ([Zn2+] μM: 2e-5), 0.0027 µM in assay [1] ([Zn2+] μM: 3e-5) and 0.16 µM in assay [1] ([Zn2+] μM: 3). In addition, in assay [1] (in the absence of Zn^2+), the Emax is around 75%. In addition, in assay [2] (setting [3]), the Kd worked out at 233 ± 70 nM.

Regarding `Cc1nc2c(C(=O)O)cnn2c(O)c1Cc1ccc(Cl)cc1` [AZ4237, 6-[(4-chlorophenyl)methyl]-7-hydroxy-5-methyl-pyrazolo[1,5-a]pyrimidine-3-carboxylic acid], the EC50 in assay [1] ([Zn2+] μM: 0) is above 33 µM; in assay [1] ([Zn2+] μM: 1e-7), above 33 µM; in assay [1] ([Zn2+] μM: 5e-7), above 33 µM; in assay [1] ([Zn2+] μM: 1e-6), 8.3 µM; in assay [1] ([Zn2+] μM: 5e-6), 0.058 µM; in assay [1] ([Zn2+] μM: 7e-6) it was 0.045 µM. For the same molecule, the EC50 is 0.015 µM in assay [1] ([Zn2+] μM: 1e-5), 0.0074 µM in assay [1] ([Zn2+] μM: 2e-5), 0.003 µM in assay [1] ([Zn2+] μM: 3e-5) and 0.58 µM in assay [1] ([Zn2+] μM: 3). Moreover, the Kd in assay [2] (setting [3]) turned out to be 48 ± 18 nM.

For the molecule `Cc1nc(-c2nc3c(c(=O)[nH]2)CN(C(=O)c2cccc(Cl)c2F)CC3)cs1` [AZ7914, 6-(3-chloro-2-fluoro-benzoyl)-2-(2-methylthiazol-4-yl)-3,5,7,8-tetrahydropyrido-[4,3-d]pyrimidin-4-one], the EC50 was above 33 µM in assay [1] ([Zn2+] μM: 0); above 33 µM in assay [1] ([Zn2+] μM: 1e-7); above 33 µM in assay [1] ([Zn2+] μM: 5e-7); above 33 µM in assay [1] ([Zn2+] μM: 1e-6); 0.29 µM in assay [1] ([Zn2+] μM: 5e-6); 0.09 µM in assay [1] ([Zn2+] μM: 7e-6). In addition, the EC50 is 0.042 µM in assay [1] ([Zn2+] μM: 1e-5), 0.0095 µM in assay [1] ([Zn2+] μM: 2e-5), 0.0063 µM in assay [1] ([Zn2+] μM: 3e-5) and 1.6 µM in assay [1] ([Zn2+] μM: 3). Moreover, in assay [2] (setting [3]), the Kd was 192 ± 85 nM.

For the molecule `[Zn+2]` [Zn^2+], the “Emax for Zn^2+ alone, of Emax for Zn^2+ together with any of the GPR39 agonists” value in assay [1] (Zn^2+ alone) is “approximately 35%”. Besides, in assay [2] (setting [4]), the “pK D1 (high affinity site)” value is 6.27 and the “pK D2 (low affinity site)” value came to 3.68. Besides, in assay [2] (Zn^2+ binding, two site binding model, read-out: K D1 (high affinity site) ± SE), the Kd was determined as 530 nM. The Kd in assay [2] (Zn^2+ binding, two site binding model, read-out: K D2 (low affinity site) ± SE) turned out to be 211000 nM.
